Reference: ChEMBL document CHEMBL1201862, “PubChem BioAssay data set” (2004)
Calls of active or inactive are those of the source.

How the values were obtained:
Beta-lactamase [1] = target: Beta-lactamase (Salmonella choleraesuis (strain SC-B67), UniProt Q5J463); test: Epi-absorbance-based counterscreen for selective VIM-2 inhibitors: dose response biochemical high throughput screening assay to identify inhibitors of TEM-1 serine-beta-lactamase.
Beta-lactamase [2] = target: T1, Beta-lactamase (Pseudomonas aeruginosa, UniProt Q79MP6); test: inhibition of IMP-1 beta-lactamase activity – biochemical, epi-absorbance, selectivity assay for VIM-2 inhibitor project, dose response (AID 1920)
Beta-lactamase [3] = target: T1, Beta-lactamase; test: […] counterscreen for selective VIM-2 inhibitors: dose response biochemical high throughput screening assay to identify inhibitors of IMP-1 metallo-beta-lactamase.
[4] = potency of ADAM10 substrate cleavage blockers – biochemical, QFRET, dose response (AID 743254);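 also: ADAM10 enzyme with the DM2 quenched FRET peptide as substrate; EDANS fluorescence gain as the protease cuts the substrate; inhibitor potency against ADAM10 proteolytic activity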
[5] = target: Disintegrin and metalloproteinase domain-containing protein 17 (Homo sapiens, UniProt P78536); test: inhibition of ADAM17 substrate cleavage – biochemical, quenched FRET substrate, counter-screen for ADAM10 exosite inhibitor project, dose response (AID 743253)
Major prion protein = Major prion protein (Homo sapiens, UniProt P04156); assay type: functional, cell-based
cells [6] = test: cells
[7] = A cytotoxicity screen of small molecule inhibitors of the PhoP region in Salmonella typhi identified in the primary screen. [Related pubchem assays: 1850, 1864, 1985 ]; assay type: functional
Vero = test: viability loss in Vero cells – cell-based, plate reader, cherry-pick samples, cytotoxicity control, dose response (AID 687020); assay type: functional; conditions: Chlorocebus sabaeus
[8] = target: T2, Sentrin-specific protease 8 (Homo sapiens, UniProt Q96LD8); assay type: functional
T2 sequence (Q96LD8 whole entry): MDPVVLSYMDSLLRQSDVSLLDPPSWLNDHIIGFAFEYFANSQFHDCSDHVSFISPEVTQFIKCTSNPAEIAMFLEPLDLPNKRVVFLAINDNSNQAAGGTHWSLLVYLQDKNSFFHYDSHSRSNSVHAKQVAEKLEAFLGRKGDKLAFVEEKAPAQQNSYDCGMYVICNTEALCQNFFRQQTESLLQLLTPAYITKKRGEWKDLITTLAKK

[9] = target: T2, Sentrin-specific protease 8; assay type: functional; remark: listed apart in the source
Caspase-3 = target: T3, Caspase-3 (Homo sapiens, UniProt P42574); test: Dose-response confirmation of uHTS inhibitor hits of Sentrin-Specific Protease 8 in a Caspase-3 Fluorescence assay.; assay type: functional
T3 sequence (P42574 whole entry): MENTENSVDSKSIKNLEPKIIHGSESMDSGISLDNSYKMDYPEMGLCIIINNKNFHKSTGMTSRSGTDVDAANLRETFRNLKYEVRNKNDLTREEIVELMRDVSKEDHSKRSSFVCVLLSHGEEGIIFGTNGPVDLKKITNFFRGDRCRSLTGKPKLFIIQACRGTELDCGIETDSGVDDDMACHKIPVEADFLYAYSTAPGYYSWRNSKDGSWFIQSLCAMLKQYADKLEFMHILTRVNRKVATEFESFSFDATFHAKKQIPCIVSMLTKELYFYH

[10] = target: Fructose-bisphosphate aldolase (Mycobacterium tuberculosis, UniProt P9WQA3); test: Fluorescence-based biochemical high throughput dose response assay for inhibitors of the fructose-bisphosphate aldolase (FBA) of M. tuberculosis.; assay type: functional
Galanin receptor type 3 = Galanin receptor type 3 (Homo sapiens, UniProt O60755); test: Fluorescence-based cell-based primary high throughput dose response assay to identify antagonists of the Galanin Receptor 3 (GalR3).; assay type: functional
cells [11] = assay type: functional, cell-based; conditions: HEK-CNG
[12] = target: Heat shock protein HSP 90-alpha (Homo sapiens, UniProt P07900); test: Luminescence-based dose response biochemical high throughput screening assay for inhibitors of the Heat Shock Protein 90 (HSP90). [Related pubchem assays: 1831 (Summary AID.), 1846 (Confirmation screen.), 1789 (Primary screen.)]
[13] = Late stage assay provider results from the probe development effort to identify selective inhibitors of heat shock protein 90 (HSP90): Absorbance-based cell proliferation assay in SKBR3 cells.; assay type: functional; conditions: SK-BR-3
[14] = Late stage assay provider results from the probe development effort to identify selective inhibitors of heat shock protein 90 (HSP90): Absorbance-based cell proliferation assay in MCF7 cells.; assay type: functional
[15] = microbe, parasite or virus in culture; assay type: functional; conditions: Mycobacterium tuberculosis
Mu-type opioid receptor = Mu-type opioid receptor (Homo sapiens, UniProt P35372); assay type: functional, cell-based;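 also: U2OS cells with beta-arrestin recruitment to OPRM1 by beta-gal complementation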
[16] = target: 5-hydroxytryptamine receptor 2A (Mus musculus, UniProt P35363); assay type: functional, cell-based;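 also: CHO-K1 cells with tagged receptor and beta-arrestin; agonist potency measured as compound-induced activation of the receptor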
[17] = blockers of HIV-1 envelope-mediated cell-cell fusion – cherry-pick, dose response (AID 652057); assay type: functional, cell-based
[18] = viability loss in CEM21 cells – cell-based, CellTiter-Glo luminescence, cherry-picked, cytotoxicity control for viral fusion inhibitor project, dose response (AID 652042); assay type: functional;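 also: potency for signal decrease meaning cytotoxicity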
[19] = blockers of HIV-1 ZM109 envelope-driven cell-cell fusion – HeLa effector, CEM target cells, luciferase, cherry-pick, dose response (AID 652058); assay type: functional, cell-based;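 also: luciferase signal from HIV-1 Env mediated cell-cell fusion of effector and target cells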
[20] = off-target signal loss in HeLa-CEM21 co-culture – HeLa F-luc CTL cells, cherry-picked, counter-screen for HIV-1 Env fusion inhibitor project, dose response (AID 652040); assay type: functional, cell-based;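 also: potency for signal decrease marking cytotoxic or nonspecific inhibition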
[21] = HIV-1 AD8 envelope cell-cell fusion blockers – cherry-pick, dose response (AID 652062); assay type: functional, cell-based;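 also: luciferase signal from cell-cell fusion driven by HIV-1 clade B AD8 Env; potency is for inhibitors of fusion seen as a drop in luminescence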
Escherichia coli [22] = test: microbe, parasite or virus in culture
Escherichia coli [23] = test: microbe, parasite or virus in culture; remark: listed apart in the source
[24] = target: Dual specificity tyrosine-phosphorylation-regulated kinase 1A (Rattus norvegicus, UniProt Q63470); assay type: biochemical, Homo sapiens
[25] = viability loss in HepG2 hepatoma cells – cell-based, ATP luminescence, cherry-pick, activator set 2, cytotoxicity control, dose response (AID 1053143); assay type: functional
Paired box protein Pax-8 = Paired box protein Pax-8 (Homo sapiens, UniProt Q06710); test: PAX8 transcriptional activity inhibition in RMG-I – RMG-I cells, luciferase, cherry-pick, dose response (AID 687027); assay type: functional, cell-based;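 also: luciferase reporter driven by Pax8 target thyroperoxidase promoter measured by SteadyGlo luminescence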
[26] = OVCAR-3 cell viability loss – plate reader, dry powder samples, PAX8 inhibitor project, dose response (AID 743044); assay type: functional, cell-based
[27] = IGROV1 cell killing – plate reader, dry powder samples, PAX8 inhibitor project, dose response (AID 743043); assay type: functional, cell-based; conditions: IGROV-1
[28] = OVCAR8 cell viability loss – plate reader, dry powder samples, PAX8 project, dose response (AID 743197); assay type: functional, cell-based; conditions: OVCAR-8
[29] = A2780 cell killing – plate reader, dry powder samples, cytotoxicity control, dose response (AID 743046); assay type: functional, cell-based
[30] = CMV-driven luciferase expression suppression in HEK293 – cell-based, luminescence, dry powder, counter-screen for Pax8 inhibitor project, dose response (AID 743020); assay type: functional
[31] = general cell-killing toxicity readout – plate reader, dry powder samples, cytotoxicity control for PAX8 inhibitor project, dose response (AID 743021); assay type: functional, cell-based
[32] = target: Endoplasmic reticulum aminopeptidase 1 (Homo sapiens, UniProt Q9NZ08); test: inhibition of human ERAP1 enzyme activity – biochemical, cherry-pick, set 2, plate reader, dose response (AID 743314)
[33] = Luminescence Cell-Based Dose Retest to Confirm Inhibitors of Cancer Stem Cells. [Related pubchem assays (depositor defined):AID2717, AID2721]; assay type: functional; conditions: Homo sapiens
[34] = Counterscreen for […] of the human trace amine associated receptor 1 (TAAR1): Fluorescence-based cell-based high throughput dose response assay to identify nonselective Ga16 agonists.; assay type: functional
[35] = Counterscreen for antagonists of the human trace amine associated receptor 1 (hTAAR1): Fluorescence-based cell-based high throughput dose response assay to identify nonselective Ga16 antagonists.; assay type: functional
[36] = Late stage assay provider results from the probe development effort to identify inhibitors of the Plasmodium falciparum M17 Leucine Aminopeptidase (M17LAP): radiolabel-based cell-based dose response assay to identify compounds that inhibit P. falciparum growth in RBCs Set 2.; assay type: functional
[37] = luciferase reporter signal suppression in cells – H4 neuroglioma cells, luminescence, dose response (AID 1990); assay type: functional, cell-based
[38] = luciferase reporter signal reduction – luminescence, H4-C neuroglioblastoma cells, dose response (AID 2458); assay type: functional, cell-based;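 also: H4 neuroglioblastoma cells stably carrying a luciferase reporter gene fusion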
cells [39] = assay type: functional, cell-based
[40] = alpha-synuclein stem-loop luciferase translation blockers – H4 neuroglioma cells, luminescence, confirmation (AID 1988); assay type: functional, cell-based
[41] = alpha-synuclein stem-loop translation blockers – luminescence, H4 neuroglioblastoma cells, dose confirmation, confirmation (AID 2454); assay type: functional, cell-based;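 also: H4 neuroglioblastoma cells carrying an alpha-synuclein 5'UTR luciferase reporter; potency for inhibition of the luciferase signal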
[42] = HEK-293T viability loss after treatment – luminescence, T-cell screen hits, cytotoxicity control for TCR NF-kB inhibitor project, dose response (AID 489026); assay type: functional, cell-based;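 also: cells exposed to compound about 14 hours before the viability readout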
P388/ADR = test: cells; assay type: functional; conditions: Mus musculus
SN12K1 = test: cells; assay type: functional; conditions: Homo sapiens
P388 = test: cells; assay type: functional; conditions: Mus musculus
[43] = rescue of ΔF508 CFTR function, airway epithelium – human bronchial epithelial cells, plate reader, cherry-pick, two tests, dose response (AID 743267); assay type: functional, cell-based

In the case of `Cc1c(C)c2c(OCC(=O)N[C@@H](C)C(=O)O)cc3c(c2oc1=O)CCC(C)(C)O3`, the IC50 (Beta-lactamase [1]) is reported as > 59.6 µM (inactive), the IC50 (Beta-lactamase [2]) is reported as > 59.6 µM (inactive) and the IC50 (Beta-lactamase [3]) is reported as > 59.6 µM (inactive).

For `O=C(NCCc1nc2ccccc2[nH]1)/C(=C/c1ccc2c(c1)OCO2)NC(=O)c1ccc(Cl)cc1Cl`, the IC50 [4] was > 69.5 µM (inactive) and the IC50 [5] was > 69.5 µM (inactive).

For `O=C(O)c1cc(-c2cccnc2)nc2ccc(Br)cc12`, the IC50 (Major prion protein) was 13.8 µM (inactive) and the IC50 (cells [6]) was > 138 µM (inactive).

For `O=C(Nc1ccc(Cc2ccncc2)cc1)c1cccs1`, the EC50 [7] was > 50 µM (active) and the AC50 (Vero) was 26.3 µM (active).

For `Cc1ccc(S(=O)(=O)N2CCOCC2)cc1C(=O)OCC(=O)N1CCc2ccccc2C1`, the IC50 [8] was 62.2 µM (inactive), the IC50 [9] was 24.4 µM (active) and the IC50 (Caspase-3) was 92.7 µM (inactive).

For `C=CCn1c(-c2ccc(N)cc2)nc2ccccc21`, the IC50 [10] was > 0.37 µM (active).

With `O=c1c(Cl)c(NCC2CCCO2)cnn1C12CC3CC(CC(C3)C1)C2` (stereo unspecified) the IC50 (Galanin receptor type 3) was > 29.9 µM (inactive) and the EC50 (cells [11]) was > 29.9 µM (inactive).

In the case of `COC(=O)c1ccc2nc(NC(=O)C3CC3)sc2c1`, the IC50 [12] is reported as 3.82 µM (active), the IC50 [13] is reported as > 100 µM (inactive) and the IC50 [14] is reported as 49.2 µM (inactive).

For `CN(C)c1ccc(O)c2c1CC1CC3[C@@H](N(C)C)C(=O)C(C(N)=O)C(=O)[C@]3(O)C(=O)C1C2=O` (stereo partly specified), the CC50 [15] was 29 µM (active), the EC50 (Mu-type opioid receptor) was 92.5 µM (inactive) and the EC50 [16] was 0.659 µM (active). For the same compound, the AC50 [17] was < 0.26 µM (active), the AC50 [18] was 61.2 µM (active) and the AC50 [19] was < 0.26 µM (active). The AC50 [20] was < 0.26 µM (active), the AC50 [21] was < 0.26 µM (active) and the AC50 (Escherichia coli [22]) was 11.8 µM (active). For the same compound, the AC50 (Escherichia coli [23]) was 1.35 µM (active).

In the case of `C=CS(=O)(=O)c1c2cc(OC)ccc2nc2ccc(OC)cc12`, the AC50 [24] is reported as 0.682 µM (active) and the AC50 [25] is reported as 25.4 µM (active).

In the case of `C[C@@H]1CN([C@@H](C)CO)C(=O)c2cc(NC(=O)Nc3ccc(C(F)(F)F)cc3)ccc2O[C@@H](C)CCCCO[C@H]1CN(C)Cc1ccncc1`, the AC50 (Paired box protein Pax-8) is reported as 8.41 µM (active), the AC50 [26] is reported as 29.5 µM (active) and the AC50 [27] is reported as 53.7 µM (active). The AC50 [28] was 53.8 µM (active).

For `C[C@@H]1CN([C@@H](C)CO)S(=O)(=O)c2ccc(C#CC3CCCC3)cc2O[C@H]1CN(C)Cc1cccnc1`, the AC50 (Paired box protein Pax-8) was 8.33 µM (active), the AC50 [29] was 15 µM (active) and the AC50 [30] was 47.5 µM (active). The AC50 [26] was 25.7 µM (active) and the AC50 [31] was 57.1 µM (active).

In the case of `O=C(NCC1CC1)[C@@H]1[C@@H](CO)[C@@H]2Cn3c(ccc(/C=C/c4ccccc4)c3=O)[C@H]1N2C(=O)C1CC1`, the AC50 [32] is reported as 14.7 µM (active).

With `Cc1cc(Br)c(OCc2ccc(C(=O)N/N=C/c3ccc[nH]3)cc2)c(Br)c1` the AC50 [33] was 0.228 µM (active), the EC50 [34] was > 29.9 µM (inactive) and the IC50 [35] was > 29.9 µM (inactive). For the same compound, the AC50 (Paired box protein Pax-8) was 0.693 µM (active) and the AC50 [31] was 59.4 µM (active).

With `O=C(Cc1ccc(OCc2ccccc2)cc1)NO` the IC50 [36] was 4.7 µM (active).

With `CC(=O)O[C@H]1C(=O)[C@@]2(C)[C@H]([C@H](OC(=O)c3ccccc3)[C@]3(O)C[C@H](OC(=O)[C@H](O)[C@@H](NC(=O)c4ccccc4)c4ccccc4)C(C)=C1C3(C)C)[C@]1(OC(C)=O)CO[C@@H]1C[C@@H]2O` [PACLITAXEL] the EC50 [37] was 10.6 µM (active), the EC50 [38] was 0.039 µM (active) and the EC50 (cells [39]) was 0.086 µM (active). The EC50 [40] was < 0.1 µM (active), the EC50 [41] was 0.069 µM (active) and the IC50 [42] was > 80 µM (inactive). The GI50 (P388/ADR) was 0.605 µM (active), the GI50 (SN12K1) was 0.00327 µM (active) and the GI50 (P388) was 0.00569 µM (active). For the same compound, the AC50 [43] was 3.59 µM (active).
